Among the test systems are NCI-H522 lung; K-562 leukemia; DU-145 prostate; OVCAR-3 ovarian; KM12 colon; OVCAR-4 ovarian; A549 NSCLC; SNB-75 CNS; LOX IMVI melanoma; SK-MEL-2 melanoma.
What all share (assay): inhibition of tumour cell growth, NCI panel, 48 h

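These data come from cells grown in 96-well plates and exposed to compound for 48 hours at five concentrations. TGI denotes the concentration required for complete inhibition of growth.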

Turning to `c1ccc2c(c1)SCCCS2`, the TGI in the test on NCI-H522 lung, in the test on K-562 leukemia, with DU-145 prostate, with OVCAR-3 ovarian, with KM12 colon and with OVCAR-4 ovarian was over 100 µM each time. Moreover, the TGI with A549 NSCLC, in the test on SNB-75 CNS and in the test on LOX IMVI melanoma was over 100 µM each time.

Consider `OCc1ccc2c(c1)CC1(C2)Cc2cc3c(cc2C1O)CCC3` (stereo not given), for which the TGI in the test with NCI-H522 lung is 10 µM; with K-562 leukemia it was over 37.6 µM; with DU-145 prostate, 67.1 µM; in the test with OVCAR-3 ovarian it was over 50.9 µM; with KM12 colon it was 16.5 µM; in the test on OVCAR-4 ovarian it was 36.3 µM. Also, the TGI in the test on A549 NSCLC was over 70.7 µM; in the test on SNB-75 CNS, 16.8 µM; in the test on LOX IMVI melanoma, 19.4 µM; with SK-MEL-2 melanoma, 12.7 µM.

With `O=c1c2c3c(sc2[nH]c(=S)n1-c1ccccc1)CCCc1ccc([N+](=O)[O-])cc1-3`, the TGI was 36.5 µM with NCI-H522 lung; 35.3 µM with K-562 leukemia; over 100 µM in the test with DU-145 prostate; over 100 µM with OVCAR-3 ovarian; over 100 µM with KM12 colon; over 100 µM in the test on OVCAR-4 ovarian. Also, the TGI with A549 NSCLC was over 100 µM; in the test with LOX IMVI melanoma, 62.2 µM; in the test on SK-MEL-2 melanoma, over 100 µM.

Regarding `CC(C)NC(=O)OCc1c(COC(=O)NC(C)C)n(C)c2c1ccc1sccc12`, the TGI with NCI-H522 lung is 15.5 µM; with K-562 leukemia it was over 52.2 µM; with DU-145 prostate it was 21.1 µM; in the test with OVCAR-3 ovarian, 36.9 µM; in the test on KM12 colon, 31.2 µM; with OVCAR-4 ovarian, 36.5 µM. The TGI in the test on A549 NSCLC is over 54.2 µM; in the test on SNB-75 CNS, 32.4 µM; with LOX IMVI melanoma it was over 53.1 µM; with SK-MEL-2 melanoma, 36.2 µM.

With `O=C(ON=C1c2ccccc2C(Br)C(Br)c2ccccc21)c1ccccc1` (stereo not given), the TGI in the test with NCI-H522 lung was found to be 3.85 µM; in the test on K-562 leukemia, 8.98 µM; in the test with DU-145 prostate it was 31.8 µM; in the test on OVCAR-3 ovarian, 28.7 µM; in the test on KM12 colon, 33.5 µM; with OVCAR-4 ovarian, 30 µM. The TGI in the test with A549 NSCLC is 44 µM; in the test on SNB-75 CNS it was over 65.9 µM; in the test with LOX IMVI melanoma, 9.12 µM; in the test on SK-MEL-2 melanoma, over 63.6 µM.

For the compound `OCc1cn(Cc2ccccc2)c2ccccc12`, the TGI was 17.1 µM with NCI-H522 lung; over 100 µM with K-562 leukemia; over 37.2 µM with DU-145 prostate; 6.96 µM with OVCAR-3 ovarian; over 63.8 µM in the test on KM12 colon; over 100 µM in the test on A549 NSCLC. Moreover, the TGI with SNB-75 CNS is 5.64 µM; in the test on LOX IMVI melanoma, over 45.3 µM; in the test with SK-MEL-2 melanoma, 24.6 µM.

For the compound `CCOC1C=CC(=O)C(CO)O1` (stereo not given), the TGI with NCI-H522 lung turned out to be 3.52 µM; in the test on K-562 leukemia, 26 µM; with DU-145 prostate, 31.2 µM; in the test on OVCAR-3 ovarian it was 19.1 µM; in the test on KM12 colon it was 31.5 µM; with OVCAR-4 ovarian, 26.5 µM. Moreover, the TGI turned out to be 34.9 µM in the test with A549 NSCLC, 33.5 µM in the test on SNB-75 CNS, 17.8 µM in the test on LOX IMVI melanoma and 37.1 µM with SK-MEL-2 melanoma.

As to `Cn1c2ccccc2n2c3ncccc3c(=O)c(C#N)c12`, the TGI is 35.4 µM in the test on NCI-H522 lung; over 100 µM in the test on K-562 leukemia; 24.7 µM in the test on DU-145 prostate; over 100 µM in the test with OVCAR-3 ovarian; over 100 µM with KM12 colon; over 100 µM in the test on OVCAR-4 ovarian. The TGI with A549 NSCLC is over 36.7 µM; with SNB-75 CNS it was over 79.9 µM; in the test on LOX IMVI melanoma it was 23.1 µM; in the test with SK-MEL-2 melanoma it was 97.4 µM.

With `CC(=O)Nc1nc(Cl)cc(NCC2(CO)CCC2)n1`, the TGI in the test with NCI-H522 lung, with K-562 leukemia, in the test on DU-145 prostate, in the test on OVCAR-3 ovarian, in the test with KM12 colon and in the test with OVCAR-4 ovarian was over 100 µM throughout. The TGI in the test with A549 NSCLC, in the test on SNB-75 CNS, in the test on LOX IMVI melanoma and in the test with SK-MEL-2 melanoma was over 100 µM throughout.

In the case of `CC1(C)CC(=O)C2=C(C1)C(c1ccccc1Cl)C1C(=O)CC(C)(C)CC1(O)O2` (stereo not given), the TGI in the test on NCI-H522 lung, with K-562 leukemia, in the test on DU-145 prostate, in the test with OVCAR-3 ovarian, in the test on KM12 colon and with OVCAR-4 ovarian was over 100 µM in each case. Further, the TGI with A549 NSCLC, in the test on SNB-75 CNS, in the test with LOX IMVI melanoma and with SK-MEL-2 melanoma was over 100 µM each time.

Turning to `c1c[nH]c(-c2cccc3nsnc23)c1`, the TGI in the test on NCI-H522 lung, with K-562 leukemia, with DU-145 prostate, with KM12 colon, in the test with OVCAR-4 ovarian and in the test with A549 NSCLC was over 100 µM each time. Besides, the TGI in the test with SNB-75 CNS, with LOX IMVI melanoma and in the test on SK-MEL-2 melanoma was over 100 µM in each case.

`NC1=CC(=O)c2c(O)ccc(O)c2C1=O`: the TGI with NCI-H522 lung was 18 µM; in the test with K-562 leukemia it was over 50.5 µM; in the test on DU-145 prostate, 32.1 µM; in the test on OVCAR-3 ovarian, 8.45 µM; in the test on KM12 colon it was over 78.7 µM; in the test on OVCAR-4 ovarian it was 23.1 µM. Moreover, the TGI in the test on A549 NSCLC is 49.6 µM; with SNB-75 CNS, 83.3 µM; with LOX IMVI melanoma, 33.1 µM; with SK-MEL-2 melanoma, 32.6 µM.

As for `Cc1ccc(-c2cc(-c3ccco3)c(C#N)c(=S)[nH]2)cc1`, the TGI in the test on NCI-H522 lung, in the test on K-562 leukemia, in the test on DU-145 prostate, in the test with OVCAR-3 ovarian, with KM12 colon and in the test on OVCAR-4 ovarian was over 100 µM in each case. In addition, the TGI in the test on A549 NSCLC, with SNB-75 CNS and in the test with LOX IMVI melanoma was over 100 µM in each case.

`CC(C)C(Br)CCC1=CCC(Br)(Br)C1` (stereo not given): the TGI in the test with NCI-H522 lung was 6.81 µM; in the test with K-562 leukemia, over 100 µM; in the test on DU-145 prostate, 32.5 µM; in the test on OVCAR-3 ovarian it was 25.7 µM; with KM12 colon, 27.5 µM; in the test on OVCAR-4 ovarian, 24.2 µM. For the same compound, the TGI with A549 NSCLC amounted to 33.8 µM; with SNB-75 CNS it was 23.3 µM; with LOX IMVI melanoma, 3.05 µM; in the test with SK-MEL-2 melanoma, 19.3 µM.

Source of the values: PubChem BioAssay (NCI).
